Assay: BioPharmaceutical Classification System (BCS) solubility and permeability class
Format: physicochemical
Conditions: BCS 4 = poorly soluble and poor permeability
Experimental: The BioPharmaceutical Classification System (BCS) classifies drug substances as to their solubility and permeability. For example, a drug substance is considered highly soluble when the highest dose strength is soluble in ≤250 ml water over a pH range of 1-7, and highly permeable when the extent of absorption in humans is determined to be >90% of an administered dose, in comparison to an intravenous reference dose. A BCS 1 compound is highly soluble and highly permeable, while a BCS 4 compound is poorly soluble and has poor permeability. For BCS 4 compounds, bioavailability and the pharmacokinetic (PK) profile or parameters, such as mean maximum plasma concentration (Cmax), mean time to maximum plasma concentration (Tmax) and mean area under the plasma concentration vs. time curve (AUC) after oral administration, can be positively or negatively impacted by the formulation, the type of the excipients selected and the specific excipients. The safety and efficacy of the fixed combination oral product depends on these PK parameters being in the appropriate range. Compound 1 is a BCS 4 compound and therefore for fixed combination oral products having compound 1, or a corresponding amount of a pharmaceutically acceptable salt thereof, the type and specifics of the excipients must be carefully selected so as to achieve the target pharmacokinetic parameters.

CONC(=O)Nc1ccc(-c2sc3c(c2CN(C)C)c(=O)n(-c2ccc(OC)nn2)c(=O)n3Cc2c(F)cccc2F)cc1 [Compound 1, N-(4-(1-(2,6-difluorobenzyl)-5-((dimethylamino)methyl)-3-(6-methoxy-3-pyr-idazinyl)-2,4-dioxo-1,2,3,4-tetrahydrothieno[2,3-d]pyrimidin-6-yl)phenyl)-N′-methoxyurea]
BCS class: BCS 4

Source: patent US12551447B2, “Combination solid oral dosage forms of gonadotropin-releasing hormone antagonists” (Sumitomo Pharma Co., Ltd., priority 2020, dated 2026)
